Results on seven compounds are retold here after US20050124658A1, “Decahydronaphtho[2,3-c]furan derivatives” (Segami Chemical Research Center, priority 2001, published 2005).

SMILES strings stand for the structures.

Take `O=C1OCC2C3OC(C4=C3CCCC4)C12` (stereo not shown): the melting point (in general, the temperature of the solid-liquid transition) fell in the range of 105 to 106 °C.
`O=C1OCC2C3OC(C4CCCCC43)C12` (stereo not shown) yielded a melting point of 90 to 91 °C.
In turn, `O=C1OCC2C1CC1CCCCC1C2O` (stereo not shown) [Example 5, Decahydro-4-hydoxy-naphtho[2,3-c]furan-1(3H)-one] had a melting point of 149 to 150 °C.
The compound `COC1OCC2C(O)C3CCCCC3CC12` (stereo not shown) [Example 6, Dodecahydro-1-methoxy-naphtho[2,3-c]furan-4-ol] registered a melting point of 75 to 77 °C.
`COC1OCC2C(=O)C3CCCCC3CC12` (stereo not shown) [Example 7, Decahydro-1-methoxy-naphtho[2,3-c]furan-4(1H)-one] yielded a melting point of 78 to 79 °C.
In the case of `C=C1C2CCCCC2CC2C(OC)OCC12` (stereo not shown) [Example 8, Dodecahydro-1-methoxy-4-methylenenaphtho[2,3-c]furan], the melting point lay in the range of 53 to 55 °C.
As for `COC1OCC2C1CC1CCCCC1C2COC(=O)c1ccc(Br)cc1` (stereo not shown) [Example 10, Dodecahydro-4-(4-bromophenyl)carboxymethyl-1-methoxynaphtho[2,3-c]furan], the melting point lay in the range of 107 to 108 °C.
